# Tested on: HaCaT cells
# Assay: Concentrations of inflammatory mediators produced by HaCaT cells stimulated with TNFα and IFNγ in presence/absence of JAK inhibitors (ProCarta)
# Format: cell-based, human
# Protocol: After 48 hours, cell culture media was removed from 24 well plates and replaced with 250 uL of media containing serial diluted drug, then incubated for 15 minutes at 37° C./5% CO2. […] The final concentration of Recombinant Human Interferon gamma and Recombinant Human Tumor Necrosis Factor alpha was 25 ng/mL of each cytokine. Cytokine stimulation added to wells containing drug brought the final concentrations for each drug treatment to 25 nM, 50 nM, 100 nM, and 200 nM. Treated plates were mixed by gentle agitation for 30 seconds then incubated for 24 hours at 37° C./5% CO2. At the end of the 24 hour incubation media was immediately removed from each plate.
# Media was incubated with antibody conjugated beads designed to bind to the epitopes of specific target proteins and identify the bound protein through the bead's distinctive spectral pattern. Biotinylated detection antibodies, designed to bind to different epitopes of the same target proteins, and Streptavidin-PE are added to assay plates to quantify the amount of the target proteins. Assay plates were read on the Luminex 200 and data were expressed as Net Median Fluorescence Intensity. […] The concentration of each protein was extrapolated from the antigen standard curve and concentrations were expressed as pg/mL (Table 15).
# [1] = TNFα+IFNγ 25 ng/mL each, drug conc. 1st of 4 rows (cell not shown; prob. 25 nM)
# [2] = TNFα+IFNγ 25 ng/mL each, drug conc. 2nd of 4 rows (cell not shown; prob. 50 nM)
# [3] = TNFα+IFNγ 25 ng/mL each, drug conc. 3rd of 4 rows (cell not shown; prob. 100 nM)
# [4] = TNFα+IFNγ 25 ng/mL each, drug conc. 4th of 4 rows (cell not shown; prob. 200 nM)
# [5] = drug present, concentration not given
compound,measurement,setting,value
"Cc1n[nH]c(C)c1-c1cnn(C2(CC#N)CN(c3cc(F)c(C(=O)N[C@@H](C)C(F)(F)F)cc3F)C2)c1 [Cpd C, 4-[3-(Cyanomethyl)-3-(3′,5′-dimethyl-1H,1′H-4,4′-bipyrazol-1-yl)azetidin-1-yl]-2,5-difluoro-N-[(1S)-2,2,2-trifluoro-1-methylethyl]benzamide]",IFN gamma concentration,[1],27765.18 ± 4653.71 pg/mL
same,IL1RA concentration,[1],6175.66 ± 277.7 pg/mL
same,IL1 alpha concentration,[1],7.74 ± 0.36 pg/mL
same,IL1 beta concentration,[1],8.88 ± 0.35 pg/mL
same,IL2 concentration,[1],31.39 ± 1.44 pg/mL
same,IL4 concentration,[1],8.31 ± 2.19 pg/mL
same,IL5 concentration,[1],27.03 ± 1.35 pg/mL
same,IL6 concentration,[1],774.87 ± 31.09 pg/mL
same,IL7 concentration,[1],2.18 ± 0.15 pg/mL
same,IL8 concentration,[1],2879.27 ± 117.07 pg/mL
same,IL9 concentration,[1],3.37 ± 0.33 pg/mL
same,IL10 concentration,[1],0.75 ± 0.05 pg/mL
same,IL12p70 concentration,[1],1.97 ± 0.22 pg/mL
same,IL13 concentration,[1],2.93 ± 0.41 pg/mL
same,IL15 concentration,[1],3.97 ± 0.71 pg/mL
same,IL17A concentration,[1],4.27 ± 0.42 pg/mL
same,IL18 concentration,[1],163.63 ± 3.29 pg/mL
same,IL21 concentration,[1],2.71 ± 0.18 pg/mL
same,IL22 concentration,[1],7.15 ± 1.16 pg/mL
same,IL23 concentration,[1],7.43 ± 0 pg/mL
same,IL27 concentration,[1],8.88 ± 1.64 pg/mL
same,IL31 concentration,[1],3.52 ± 0.53 pg/mL
same,IP-10/CXCL10 concentration,[1],3999.9 ± 370.53 pg/mL
same,LIF concentration,[1],67.72 ± 2.04 pg/mL
same,MCP1 concentration,[1],15200 ± 0 pg/mL
same,MIP1 alpha concentration,[1],101.71 ± 3.84 pg/mL
same,MIP1 beta concentration,[1],318.92 ± 6.03 pg/mL
same,PDGF-BB concentration,[1],4.93 ± 0.21 pg/mL
same,PIGF-1 concentration,[1],58.04 ± 2.17 pg/mL
same,RANTES concentration,[1],216.88 ± 13.45 pg/mL
same,SCF concentration,[1],4.34 ± 0.19 pg/mL
same,SDF-1 alpha concentration,[1],3503.89 ± 90.15 pg/mL
same,TNF alpha concentration,[1],11212.78 ± 1168.53 pg/mL
same,TNF beta concentration,[1],5.68 ± 1.4 pg/mL
same,VEGF-A concentration,[1],1261.47 ± 37.95 pg/mL
same,VEGF-D concentration,[1],8.6 ± 0.74 pg/mL
same,IFN gamma concentration,[2],23531.94 ± 2644.35 pg/mL
same,IL1RA concentration,[2],6065 ± 325.72 pg/mL
same,IL1 alpha concentration,[2],7.01 ± 0.39 pg/mL
same,IL1 beta concentration,[2],8.72 ± 0.47 pg/mL
same,IL2 concentration,[2],29.87 ± 1.38 pg/mL
same,IL4 concentration,[2],5.24 ± 0.99 pg/mL
same,IL5 concentration,[2],26.49 ± 1.58 pg/mL
same,IL6 concentration,[2],710.89 ± 36.7 pg/mL
same,IL7 concentration,[2],2.02 ± 0.07 pg/mL
same,IL8 concentration,[2],2869.74 ± 167.65 pg/mL
same,IL9 concentration,[2],3.7 ± 0^ pg/mL
same,IL10 concentration,[2],0.74 ± 0.06 pg/mL
same,IL12p70 concentration,[2],1.72 ± 0.2 pg/mL
same,IL13 concentration,[2],2.24 ± 0.28 pg/mL
same,IL15 concentration,[2],2.29 ± 0.44 pg/mL
same,IL17A concentration,[2],3.48 ± 0.39 pg/mL
same,IL18 concentration,[2],156.41 ± 4.19 pg/mL
same,IL21 concentration,[2],2.88 ± 0 pg/mL
same,IL22 concentration,[2],8.03 ± 0.87 pg/mL
same,IL23 concentration,[2],7.43 ± 0 pg/mL
same,IL27 concentration,[2],5.98 ± 1.08 pg/mL
same,IL31 concentration,[2],3.36 ± 0.27 pg/mL
same,IP-10/CXCL10 concentration,[2],3665.2 ± 277.11 pg/mL
same,LIF concentration,[2],67.64 ± 3.17 pg/mL
same,MCP1 concentration,[2],33175.72 ± 17975.72 pg/mL
same,MIP1 alpha concentration,[2],104.54 ± 6.56 pg/mL
same,MIP1 beta concentration,[2],318.37 ± 9.88 pg/mL
same,PDGF-BB concentration,[2],5.22 ± 0.25 pg/mL
same,PIGF-1 concentration,[2],55.59 ± 2.74 pg/mL
same,RANTES concentration,[2],201.93 ± 15.44 pg/mL
same,SCF concentration,[2],4.25 ± 0.22 pg/mL
same,SDF-1 alpha concentration,[2],3471.01 ± 141.19 pg/mL
same,TNF alpha concentration,[2],10367.04 ± 1016.28 pg/mL
same,TNF beta concentration,[2],5.54 ± 0.56 pg/mL
same,VEGF-A concentration,[2],1268.91 ± 59.05 pg/mL
same,VEGF-D concentration,[2],8.44 ± 0.66 pg/mL
same,IFN gamma concentration,[3],23113.79 ± 2086.62 pg/mL
same,IL1RA concentration,[3],6167.55 ± 367.54 pg/mL
same,IL1 alpha concentration,[3],7.27 ± 0.47 pg/mL
same,IL1 beta concentration,[3],8.55 ± 0.34 pg/mL
same,IL2 concentration,[3],30.51 ± 1.23 pg/mL
same,IL4 concentration,[3],6.26 ± 1.35 pg/mL
same,IL5 concentration,[3],28.64 ± 1.4 pg/mL
same,IL6 concentration,[3],690.4 ± 35.25 pg/mL
same,IL7 concentration,[3],2.04 ± 0.11 pg/mL
same,IL8 concentration,[3],3035.52 ± 206.85 pg/mL
same,IL9 concentration,[3],4.16 ± 0.46 pg/mL
same,IL10 concentration,[3],0.75 ± 0.07 pg/mL
same,IL12p70 concentration,[3],1.75 ± 0.23 pg/mL
same,IL13 concentration,[3],2.58 ± 0.36 pg/mL
same,IL15 concentration,[3],2.42 ± 0.54 pg/mL
same,IL17A concentration,[3],3.77 ± 0.42 pg/mL
same,IL18 concentration,[3],162.12 ± 5.14 pg/mL
same,IL21 concentration,[3],2.6 ± 0.28 pg/mL
same,IL22 concentration,[3],7.31 ± 1.07 pg/mL
same,IL23 concentration,[3],6.7 ± 0.73 pg/mL
same,IL27 concentration,[3],5.7 ± 1.04 pg/mL
same,IL31 concentration,[3],2.95 ± 0.38 pg/mL
same,IP-10/CXCL10 concentration,[3],3860.41 ± 323.05 pg/mL
same,LIF concentration,[3],73.12 ± 3.62 pg/mL
same,MCP1 concentration,[3],26334.64 ± 11134.64 pg/mL
same,MIP1 alpha concentration,[3],96.4 ± 4.18 pg/mL
same,MIP1 beta concentration,[3],324.42 ± 8.52 pg/mL
same,PDGF-BB concentration,[3],5.57 ± 0.23 pg/mL
same,PIGF-1 concentration,[3],58.69 ± 3.37 pg/mL
same,RANTES concentration,[3],207.79 ± 17.38 pg/mL
same,SCF concentration,[3],4.59 ± 0.25 pg/mL
same,SDF-1 alpha concentration,[3],3521.98 ± 154.06 pg/mL
same,TNF alpha concentration,[3],10632.61 ± 795.65 pg/mL
same,TNF beta concentration,[3],4.6 ± 0.46 pg/mL
same,VEGF-A concentration,[3],1335.99 ± 63.65 pg/mL
same,VEGF-D concentration,[3],9.25 ± 0.7 pg/mL
same,IFN gamma concentration,[4],25179.01 ± 3591.71 pg/mL
same,IL1RA concentration,[4],5756.59 ± 328.24 pg/mL
same,IL1 alpha concentration,[4],6.45 ± 0.38 pg/mL
same,IL1 beta concentration,[4],8.71 ± 0.5 pg/mL
same,IL2 concentration,[4],30.68 ± 1.62 pg/mL
same,IL4 concentration,[4],7.07 ± 0.88 pg/mL
same,IL5 concentration,[4],27.1 ± 1.76 pg/mL
same,IL7 concentration,[4],1.91 ± 0.11 pg/mL
same,IL8 concentration,[4],2874.26 ± 169.59 pg/mL
same,IL9 concentration,[4],3.66 ± 0.04 pg/mL
same,IL10 concentration,[4],0.84 ± 0.08 pg/mL
same,IL12p70 concentration,[4],1.79 ± 0.23 pg/mL
same,IL13 concentration,[4],2.12 ± 0.3 pg/mL
same,IL15 concentration,[4],2.32 ± 0.44 pg/mL
same,IL17A concentration,[4],4 ± 0.34 pg/mL
same,IL18 concentration,[4],157.36 ± 4.56 pg/mL
same,IL21 concentration,[4],2.45 ± 0.29 pg/mL
same,IL22 concentration,[4],8.24 ± 0.53 pg/mL
same,IL23 concentration,[4],6.95 ± 0.48 pg/mL
same,IL27 concentration,[4],6.59 ± 0.99 pg/mL
same,IL31 concentration,[4],3.34 ± 0.69 pg/mL
same,IP-10/CXCL10 concentration,[4],3835.78 ± 304.58 pg/mL
same,LIF concentration,[4],70.66 ± 3.22 pg/mL
same,MCP1 concentration,[4],19811.45 ± 4611.45 pg/mL
same,MIP1 alpha concentration,[4],98.72 ± 3.87 pg/mL
same,MIP1 beta concentration,[4],318.74 ± 8.72 pg/mL
same,PDGF-BB concentration,[4],5.52 ± 0.27 pg/mL
same,PIGF-1 concentration,[4],55.71 ± 3.28 pg/mL
same,RANTES concentration,[4],189.62 ± 13.78 pg/mL
same,SCF concentration,[4],4.23 ± 0.15 pg/mL
same,SDF-1 alpha concentration,[4],3436.48 ± 134.91 pg/mL
same,TNF alpha concentration,[4],10619.05 ± 1276.72 pg/mL
same,TNF beta concentration,[4],3.78 ± 0.57 pg/mL
same,VEGF-A concentration,[4],1262.36 ± 57.42 pg/mL
same,VEGF-D concentration,[4],8.82 ± 0.7 pg/mL
same,IL1RA concentration,[5],488.84 ± 49.85 pg/mL
same,IL1 alpha concentration,[5],0.3 ± 0.05 pg/mL
same,IL1 beta concentration,[5],0.93 ± 0.17 pg/mL
same,IL2 concentration,[5],2.65 ± 0.28 pg/mL
same,IL4 concentration,[5],4.89 ± 1.18 pg/mL
same,IL5 concentration,[5],3.04 ± 0.41 pg/mL
same,IL6 concentration,[5],28.49 ± 2.89 pg/mL
same,IL7 concentration,[5],3.35 ± 0.18 pg/mL
same,IL8 concentration,[5],269.53 ± 10.35 pg/mL
same,IL9 concentration,[5],3.65 ± 0.2 pg/mL
same,IL10 concentration,[5],0.4 ± 0.11 pg/mL
same,IL12p70 concentration,[5],1.52 ± 0.29 pg/mL
same,IL13 concentration,[5],1.08 ± 0.13 pg/mL
same,IL15 concentration,[5],1.98 ± 0.49 pg/mL
same,IL17A concentration,[5],1.39 ± 0.22 pg/mL
same,IL18 concentration,[5],5.89 ± 0.58 pg/mL
same,IL21 concentration,[5],2.33 ± 0.29 pg/mL
same,IL22 concentration,[5],7.16 ± 1.16 pg/mL
same,IL23 concentration,[5],6.54 ± 1 pg/mL
same,IL27 concentration,[5],9.17 ± 2.36 pg/mL
same,IL31 concentration,[5],3.28 ± 0.31 pg/mL
same,IP-10/CXCL10 concentration,[5],19.83 ± 0.4 pg/mL
same,LIF concentration,[5],24.24 ± 1.14 pg/mL
same,MCP1 concentration,[5],1158.23 ± 47.13 pg/mL
same,MIP1 alpha concentration,[5],2.9 ± 0.21 pg/mL
same,MIP1 beta concentration,[5],117.97 ± 3.75 pg/mL
same,PDGF-BB concentration,[5],2.19 ± 0.17 pg/mL
same,PIGF-1 concentration,[5],21.19 ± 1.05 pg/mL
same,RANTES concentration,[5],8.61 ± 0.52 pg/mL
same,SCF concentration,[5],2 ± 0.1 pg/mL
same,SDF-1 alpha concentration,[5],1028.82 ± 43.21 pg/mL
same,TNF alpha concentration,[5],2.82 ± 0.72 pg/mL
same,TNF beta concentration,[5],4.5 ± 0.5 pg/mL
same,VEGF-A concentration,[5],609.51 ± 15.83 pg/mL
same,VEGF-D concentration,[5],3.63 ± 0.6 pg/mL

# Reference: patent US12498382B2, “Biomarkers for vitiligo” (INCYTE CORPORATION, priority 2019, dated 2025)
